Results from patent US20080039431A1, “Method of improving plant growth by reducing viral infections” (priority 2006, published 2008).

Tests used:
[1] = tested on: tomato spotted wilt virus (TSWV); assay: Tobacco drench / broadcast spray trial (Example 8); assay type: in vivo, tobacco (Nicotiana tabacum); conditions: acibenzolar-S-methyl 2.47 g ai/Ha broadcast spray
Text: Cultivation—A trial on tobacco (Nicotiana tabacum) was initiated in Molino, Fla., to see if drenches of prothioconazole alone and in combination with the insecticide imidacloprid could control TSWV in tobacco. Plants of cultivar C-371 Gold were transplanted on April 28 into 9.1 meter plots with three replications. All eight treatments were applied after transplanting on May 1. Foliar treatments were applied as a broadcast spray, while drenches were applied as in Example 6. Acibenzolar-S-methyl is a plant defense activator used to control TSWV in tobacco.
Treatments— • Untreated • Imidacloprid@0.01 g imidacloprid/plant • Imidacloprid@0.015 g Imidacloprid/plant • Prothioconazole@0.0084 g active ingredient/plant • Prothioconazole@0.0084 g active ingredient/plant+Imidacloprid@0.01 g imidacloprid/plant • Prothioconazole@0.0084 g active ingredient/plant+Imidacloprid@0.015 g […] label. • Acibenzolar-S-methyl@2.47 g active ingredient/Ha as a broadcast spray as per label.
TSWV rating—For TSWV incidence determination the percentage of plants with TSWV symptoms (chlorosis and stunting) was determined for the eight treatments as in Example 6.

[2] = tested on: tomato spotted wilt virus (TSWV); assay: Replicated tomato drench trial (Example 6); assay type: in vivo, tomato (Lycopersicon esculentum MILL.); conditions: prothioconazole 0.0084 g ai/plant, imidacloprid 0.01 g/plant; for Percent control of incidence of TSWV in tomatoes: Abbott's formula; for Percent incidence of TSWV in tomatoes: drench
Description: Cultivation—A replicated trial on tomato (Lycopersicon esculentum MILL.) was initiated in Molino, Fla. to determine if drenches of prothioconazole alone and in combination with the insecticide imidacloprid would suppress TSWV in tomato. Tomato plants, cultivar FL 47 were transplanted on April 11 into 4 rows, each 9.1 meters long, 60 plants per plot, with three replications. Treatments were applied, into a shallow bowl dug at the base of each plant, as a drench in 40 ml water per plant (6 days after transplanting) on April 17. Treatments— • Untreated—no in-furrow treatment • Imidacloprid@0.01 g imidacloprid/plant. • Prothioconazole—prothioconazole@0.0084 g active ingredient/plant. • Prothioconazole+Imidacloprid—prothioconazole@0.0084 g active ingredient/plant+imidacloprid@0.01 g imidacloprid/plant. TSWV rating—University researchers recommend buffers in TSWV testing. Therefore, the center two rows (30 plants) per plot were used for virus ratings with the outer two rows acting as buffers. TSWV incidence determinations were made based on the presence or absence of TSWV symptoms (chlorosis and stunting) per plant. The four treatments were rated at 21, 29, and 39 days after treatment. Synergy formula—The Colby formula for proof of synergy was used in Example 6. The percent incidence values were converted to percent control with Abbotts's formula (1-treated/untreated)*100. Percent control values for solo treatment X and solo treatment Y, were entered into the Colby formula. When the value determined from the plots with both treatment X and Y applied together is greater than the value determined by the Colby formula then synergy is indicated. The formula is: X+Y−(X*Y/100).

[3] = tested on: tomato spotted wilt virus (TSWV); assay: Bell pepper drench trial (Example 7); assay type: in vivo, bell pepper (Capsicum annum L.); conditions: for Percent control of incidence of TSWV in bell peppers: Abbott's formula; for Percent incidence TSWV in bell peppers: drench, prothioconazole 0.0084 g ai/plant, imidacloprid 0.01 g/plant
Description: Cultivation—A trial on bell pepper (Capsicum annum L.) was initiated in Molino, Fla. to see if drenches of prothioconazole alone and in combination with the insecticide imidacloprid could control TSWV in pepper. Bell pepper plants were transplanted on April 11 into 9.1 meter plots with three replications as in Example 6. Treatments were applied as a drench in 40 ml water per plant (7 days after transplanting) on April 18 as in Example 6.
Treatments— • Untreated—no in-furrow treatment. • Imidacloprid—imidacloprid@0.01 g imidacloprid/plant. • Prothioconazole—prothioconazole@0.0084 g prothioconazole/plant. • Prothioconazole+Imidacloprid—prothioconazole@0.0084 g active ingredient/plant+imidacloprid@0.01 g imidacloprid/plant.
TSWV rating—For TSWV incidence determination, the percentage of plants with TSWV symptoms (chlorosis and stunting) was determined for the four treatments at 21, 29, 38, and 47 days after treatment as in Example 6.
Synergy formula—The Colby formula for proof of synergy was used in Example 7 as in Example 6.

[4] = 14 days after treatment, prothioconazole 0.0084 g ai/plant, imidacloprid 0.01 g/plant (drench)
[5] = 21 days after treatment, prothioconazole 0.0084 g ai/plant, imidacloprid 0.01 g/plant (drench)
[6] = 38 days after treatment, prothioconazole 0.0084 g ai/plant, imidacloprid 0.01 g/plant (drench)

CSC(=O)c1cccc2nnsc12 [acibenzolar-S-methyl]
Percent incidence TSWV in tobacco [1, 4]: 36.7%
Percent incidence TSWV in tobacco [1, 5]: 46.7%
Percent incidence TSWV in tobacco [1, 6]: 53.9%

O=[N+]([O-])NC1=NCCN1Cc1ccc(Cl)nc1 [Imidacloprid, imidacloprid]
Percent control of incidence of TSWV in tomatoes ([2]; 21 days after treatment): 65.07%
Percent incidence of TSWV in tomatoes ([2]; 21 days after treatment): 10.2%
Percent control of incidence of TSWV in tomatoes ([2]; 29 days after treatment): 50.52%
Percent incidence of TSWV in tomatoes ([2]; 29 days after treatment): 33.4%
Percent control of incidence of TSWV in tomatoes ([2]; 39 days after treatment): 41.30%
Percent incidence of TSWV in tomatoes ([2]; 39 days after treatment): 49.6%
Percent control of incidence of TSWV in bell peppers ([3]; 21 days after treatment): 26.14%
Percent incidence TSWV in bell peppers ([3]; 21 days after treatment): 17.8%
Percent control of incidence of TSWV in bell peppers ([3]; 29 days after treatment): 45.84%
Percent incidence TSWV in bell peppers ([3]; 29 days after treatment): 25.4%
Percent control of incidence of TSWV in bell peppers ([3]; 38 days after treatment): 25.49%
Percent incidence TSWV in bell peppers ([3]; 38 days after treatment): 38.3%
Percent control of incidence of TSWV in bell peppers ([3]; 47 days after treatment): 19.32%
Percent incidence TSWV in bell peppers ([3]; 47 days after treatment): 42.6%
Increase of TSWV level from 38 DAT to 47 DAT ([3]; bell pepper, untreated increased by 1.4 percent): roughly 4.5%
Percent incidence TSWV in tobacco ([1]; 14 days after treatment, imidacloprid 0.015 g/plant, prothioconazole 0.0084 g ai/plant (drench)): 23.9%
Percent incidence TSWV in tobacco [1, 4]: 23.9%
Percent incidence TSWV in tobacco ([1]; 21 days after treatment, imidacloprid 0.015 g/plant, prothioconazole 0.0084 g ai/plant (drench)): 25.5%
Percent incidence TSWV in tobacco [1, 5]: 24.4%
Percent incidence TSWV in tobacco ([1]; 38 days after treatment, imidacloprid 0.015 g/plant, prothioconazole 0.0084 g ai/plant (drench)): 45.5%
Percent incidence TSWV in tobacco [1, 6]: 45.0%
